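Interpolation was linear, between the two tested concentrations surrounding the appropriate level; five concentrations were tested over 48 hours in 96-well plates. TGI denotes the concentration required for complete inhibition of growth.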
Experiments:
Experiment in all cases: growth of human tumour cells (NCI), 48 h
A498 renal = tested on: A498 renal
SNB-19 CNS = tested on: SNB-19 CNS
HCT-116 colon = tested on: HCT-116 colon
CCRF-CEM leukemia = tested on: CCRF-CEM leukemia
SF-539 CNS = tested on: SF-539 CNS
OVCAR-4 ovarian = tested on: OVCAR-4 ovarian
TK-10 renal = tested on: TK-10 renal
OVCAR-3 ovarian = tested on: OVCAR-3 ovarian
COLO 205 colon = tested on: COLO 205 colon
RXF-631 renal = tested on: RXF-631 renal
SN12C renal = tested on: SN12C renal
LXFL 529 NSCLC = tested on: LXFL 529 NSCLC
SF-268 CNS = tested on: SF-268 CNS
DMS 273 small cell lung = tested on: DMS 273 small cell lung
EKVX NSCLC = tested on: EKVX NSCLC
HOP-62 NSCLC = tested on: HOP-62 NSCLC
UO-31 renal = tested on: UO-31 renal
LOX IMVI melanoma = tested on: LOX IMVI melanoma
ACHN renal = tested on: ACHN renal
DLD-1 colon = tested on: DLD-1 colon
SK-OV-3 ovarian = tested on: SK-OV-3 ovarian
IGROV1 ovarian = tested on: IGROV1 ovarian
XF 498 CNS = tested on: XF 498 CNS
OVCAR-5 ovarian = tested on: OVCAR-5 ovarian
OVCAR-8 ovarian = tested on: OVCAR-8 ovarian
UACC-62 melanoma = tested on: UACC-62 melanoma
SNB-78 CNS = tested on: SNB-78 CNS
HCC-2998 colon = tested on: HCC-2998 colon
HT29 colon = tested on: HT29 colon
M14 melanoma = tested on: M14 melanoma
HOP-18 NSCLC = tested on: HOP-18 NSCLC
SK-MEL-5 melanoma = tested on: SK-MEL-5 melanoma
KM12 colon = tested on: KM12 colon
SW-620 colon = tested on: SW-620 colon
786-0 renal = tested on: 786-0 renal
MALME-3M melanoma = tested on: MALME-3M melanoma
RPMI-8226 leukemia = tested on: RPMI-8226 leukemia
RXF 393 renal = tested on: RXF 393 renal
K-562 leukemia = tested on: K-562 leukemia
NCI-H23 lung = tested on: NCI-H23 lung
M19-MEL melanoma = tested on: M19-MEL melanoma
SF-295 CNS = tested on: SF-295 CNS
HL-60(TB) leukemia = tested on: HL-60(TB) leukemia
SNB-75 CNS = tested on: SNB-75 CNS
HOP-92 NSCLC = tested on: HOP-92 NSCLC
UACC-257 melanoma = tested on: UACC-257 melanoma
CAKI-1 renal = tested on: CAKI-1 renal
U251 CNS = tested on: U251 CNS
NCI-H522 lung = tested on: NCI-H522 lung
NCI-H460 lung = tested on: NCI-H460 lung
KM20L2 colon = tested on: KM20L2 colon
SK-MEL-28 melanoma = tested on: SK-MEL-28 melanoma
A549 NSCLC = tested on: A549 NSCLC
NCI-H226 lung = tested on: NCI-H226 lung
SR leukemia = tested on: SR leukemia
HCT-15 colon = tested on: HCT-15 colon
MOLT-4 leukemia = tested on: MOLT-4 leukemia
DMS 114 small cell lung = tested on: DMS 114 small cell lung
SK-MEL-2 melanoma = tested on: SK-MEL-2 melanoma

CC(=O)OCC1(C)C(OC(C)=O)CCC2(C)C(CC(OC(C)=O)C3=CCOC3=O)C(O)(CO)CCC12 (configuration not stated)
TGI (A498 renal): > 100 µM | TGI (SNB-19 CNS): > 100 µM | TGI (HCT-116 colon): > 100 µM | TGI (CCRF-CEM leukemia): > 100 µM | TGI (SF-539 CNS): > 100 µM | TGI (OVCAR-4 ovarian): > 100 µM | TGI (TK-10 renal): > 100 µM | TGI (OVCAR-3 ovarian): > 100 µM | TGI (COLO 205 colon): > 100 µM | TGI (RXF-631 renal): > 100 µM | TGI (SN12C renal): > 100 µM | TGI (LXFL 529 NSCLC): > 100 µM | TGI (SF-268 CNS): > 100 µM | TGI (DMS 273 small cell lung): > 100 µM | TGI (EKVX NSCLC): > 100 µM | TGI (HOP-62 NSCLC): > 100 µM | TGI (UO-31 renal): > 100 µM | TGI (LOX IMVI melanoma): > 100 µM | TGI (ACHN renal): > 100 µM | TGI (DLD-1 colon): > 100 µM | TGI (SK-OV-3 ovarian): > 100 µM | TGI (IGROV1 ovarian): > 100 µM | TGI (XF 498 CNS): > 100 µM | TGI (OVCAR-5 ovarian): > 100 µM | TGI (OVCAR-8 ovarian): > 100 µM | TGI (UACC-62 melanoma): > 100 µM | TGI (SNB-78 CNS): > 100 µM | TGI (HCC-2998 colon): > 100 µM | TGI (HT29 colon): > 100 µM | TGI (M14 melanoma): > 100 µM | TGI (HOP-18 NSCLC): > 100 µM | TGI (SK-MEL-5 melanoma): > 100 µM | TGI (KM12 colon): > 100 µM | TGI (SW-620 colon): > 100 µM | TGI (786-0 renal): > 100 µM | TGI (MALME-3M melanoma): > 100 µM | TGI (RPMI-8226 leukemia): > 100 µM | TGI (RXF 393 renal): > 100 µM | TGI (K-562 leukemia): > 100 µM | TGI (NCI-H23 lung): > 100 µM | TGI (M19-MEL melanoma): > 100 µM | TGI (SF-295 CNS): > 100 µM | TGI (HL-60(TB) leukemia): > 100 µM | TGI (SNB-75 CNS): > 100 µM | TGI (HOP-92 NSCLC): > 100 µM | TGI (UACC-257 melanoma): > 100 µM | TGI (CAKI-1 renal): > 100 µM | TGI (U251 CNS): > 100 µM | TGI (NCI-H522 lung): > 100 µM | TGI (NCI-H460 lung): > 100 µM | TGI (KM20L2 colon): > 100 µM | TGI (SK-MEL-28 melanoma): > 100 µM | TGI (A549 NSCLC): > 100 µM | TGI (NCI-H226 lung): > 100 µM

CCCC(=O)c1c(NOC2OCC(OC(C)=O)C(OC(C)=O)C2OC(C)=O)nc(OC)n(C)c1=O (configuration not stated)
TGI (A498 renal): > 100 µM | TGI (SNB-19 CNS): > 100 µM | TGI (SR leukemia): > 100 µM | TGI (HCT-116 colon): > 100 µM | TGI (CCRF-CEM leukemia): 19.1 µM | TGI (SF-539 CNS): > 100 µM | TGI (OVCAR-4 ovarian): > 100 µM | TGI (TK-10 renal): > 100 µM | TGI (OVCAR-3 ovarian): > 100 µM | TGI (HCT-15 colon): > 100 µM | TGI (COLO 205 colon): > 100 µM | TGI (RXF-631 renal): > 100 µM | TGI (SN12C renal): > 100 µM | TGI (LXFL 529 NSCLC): > 100 µM | TGI (SF-268 CNS): > 100 µM | TGI (DMS 273 small cell lung): > 100 µM | TGI (EKVX NSCLC): > 100 µM | TGI (HOP-62 NSCLC): > 100 µM | TGI (UO-31 renal): > 100 µM | TGI (LOX IMVI melanoma): > 100 µM | TGI (ACHN renal): > 100 µM | TGI (DLD-1 colon): > 100 µM | TGI (SK-OV-3 ovarian): > 100 µM | TGI (IGROV1 ovarian): > 100 µM | TGI (XF 498 CNS): > 100 µM | TGI (OVCAR-5 ovarian): > 100 µM | TGI (OVCAR-8 ovarian): > 100 µM | TGI (UACC-62 melanoma): > 100 µM | TGI (HCC-2998 colon): > 100 µM | TGI (HT29 colon): > 100 µM | TGI (M14 melanoma): > 100 µM | TGI (MOLT-4 leukemia): > 100 µM | TGI (HOP-18 NSCLC): > 100 µM | TGI (SK-MEL-5 melanoma): > 100 µM | TGI (KM12 colon): > 100 µM | TGI (SW-620 colon): > 100 µM | TGI (786-0 renal): > 100 µM | TGI (MALME-3M melanoma): > 100 µM | TGI (RPMI-8226 leukemia): > 100 µM | TGI (RXF 393 renal): > 100 µM | TGI (K-562 leukemia): 36 µM | TGI (DMS 114 small cell lung): > 100 µM | TGI (NCI-H23 lung): > 100 µM | TGI (M19-MEL melanoma): > 100 µM | TGI (SF-295 CNS): > 100 µM | TGI (HL-60(TB) leukemia): 3.09 µM | TGI (SNB-75 CNS): > 100 µM | TGI (HOP-92 NSCLC): > 100 µM | TGI (UACC-257 melanoma): > 100 µM | TGI (CAKI-1 renal): > 100 µM | TGI (U251 CNS): > 100 µM | TGI (NCI-H460 lung): > 100 µM | TGI (KM20L2 colon): > 100 µM | TGI (SK-MEL-28 melanoma): > 100 µM | TGI (A549 NSCLC): > 100 µM | TGI (NCI-H226 lung): > 100 µM

O=[N+]([O-])c1ccc(-c2noc(-c3ccccc3)c2C2=NCCN2)cc1
TGI (SNB-19 CNS): > 100 µM | TGI (SR leukemia): > 100 µM | TGI (HCT-116 colon): > 100 µM | TGI (CCRF-CEM leukemia): > 100 µM | TGI (SF-539 CNS): > 100 µM | TGI (OVCAR-4 ovarian): > 100 µM | TGI (OVCAR-3 ovarian): 90.8 µM | TGI (HCT-15 colon): > 100 µM | TGI (COLO 205 colon): > 100 µM | TGI (RXF-631 renal): > 100 µM | TGI (SN12C renal): > 100 µM | TGI (LXFL 529 NSCLC): > 100 µM | TGI (SF-268 CNS): > 100 µM | TGI (EKVX NSCLC): > 100 µM | TGI (HOP-62 NSCLC): > 100 µM | TGI (UO-31 renal): > 100 µM | TGI (SK-MEL-2 melanoma): > 100 µM | TGI (LOX IMVI melanoma): > 100 µM | TGI (ACHN renal): > 100 µM | TGI (DLD-1 colon): > 100 µM | TGI (IGROV1 ovarian): > 100 µM | TGI (XF 498 CNS): > 100 µM | TGI (OVCAR-5 ovarian): > 100 µM | TGI (OVCAR-8 ovarian): > 100 µM | TGI (UACC-62 melanoma): > 100 µM | TGI (SNB-78 CNS): > 100 µM | TGI (HCC-2998 colon): > 100 µM | TGI (HT29 colon): > 100 µM | TGI (M14 melanoma): > 100 µM | TGI (MOLT-4 leukemia): > 100 µM | TGI (HOP-18 NSCLC): > 100 µM | TGI (SK-MEL-5 melanoma): > 100 µM | TGI (KM12 colon): > 100 µM | TGI (SW-620 colon): > 100 µM | TGI (786-0 renal): > 100 µM | TGI (MALME-3M melanoma): > 100 µM | TGI (RPMI-8226 leukemia): > 100 µM | TGI (RXF 393 renal): > 100 µM | TGI (K-562 leukemia): > 100 µM | TGI (M19-MEL melanoma): > 100 µM | TGI (SF-295 CNS): > 100 µM | TGI (HL-60(TB) leukemia): > 100 µM | TGI (SNB-75 CNS): > 100 µM | TGI (UACC-257 melanoma): > 100 µM | TGI (CAKI-1 renal): > 100 µM | TGI (U251 CNS): > 100 µM | TGI (NCI-H522 lung): > 100 µM | TGI (NCI-H460 lung): > 100 µM | TGI (KM20L2 colon): > 100 µM | TGI (SK-MEL-28 melanoma): > 100 µM | TGI (A549 NSCLC): > 100 µM | TGI (NCI-H226 lung): > 100 µM
